US5652366A, “DI (1R)-(-)camphosulfonic acid) salt, preparation thereof and use thereof” (Rhone-Poulenc Rorer Pharmaceuticals Inc., priority 1995, dated 1997)
Read-outs that look alike come from different tables or passages of the source. Each block holds one compound with its values, some of them ahead of it.

Assays:
[1] = system: normotensive anesthetized rat; experiment: In vivo mean arterial pressure and heart rate in normotensive anesthetized rat; conditions: iv
Procedure: Normotensive rats were anesthetized with sodium pentobarbital (50 mg/kg, j.p.) and placed on a heated surgical table. Cannulas were inserted into the femoral artery and […] to allow the measurement of arterial pressure and to facilitate the intravenous administration of test compounds. The animals was allowed to equilibrate for 10 minutes after surgery. Mean arterial pressure was continuously measured and recorded and heart rate was monitored using the arterial pressure pulse to trigger a cardiotachometer. After baseline parameters were established and recorded, increasing doses (1, 3, 10, 30, 100, 300 and 1000 μg/kg) of the compound of the invention to be tested were administered intravenously. Maximal changes in the cardiovascular parameters were observed after each dose of the adenosine agonist. Only one compound was administered per rat.

swine coronary arteries = experiment: In vitro vasorelaxation in isolated swine coronary arteries (PGF2α-contracted rings); format: cell-based; conditions: Sus scrofa; for EC50: Table II; for IC50: read-out: Vasorelaxation (IC50)
Procedure: Swine coronary arteries were obtained from a local slaughter house, dissected carefully and cleaned of fat, blood and adhering tissue. Rings approximately 2-3 mm wide were cut and transferred to water-jacketed tissue baths (10 ml) filled with warm (37° C.), oxygenated (O2 /CO2 :95%/5%) Krebs-Henseleit buffer and mounted on L-shaped hooks between stainless steel rods and a force transducer. […] Rings were equilibrated for 90 minutes with frequent buffer changes at a resting tension of 5 g In order to assure optimal tension development, arterial rings were primed twice with 36 mM KCl and once with 10 μm. PGF2α, before being exposed to 3 μM PGF2α. […] Tension achieved with 3 μM PGF2α was considered .equivalent to 100%; all other values were expressed as a percentage of that maximum.

rat adipocytes = experiment: In vitro lipolysis assay in rat adipocytes (glycerol production); format: cell-based; conditions: for EC50 / inhibition at 0.1 µM / inhibition at 1 µM: Rattus norvegicus, Adipocyte; for EC50: read-out: EC50 (50% inhibition of glycerol production); for inhibition at 0.1 µM / inhibition at 1 µM: read-out: % Inhibition of glycerol production
Procedure: Adipose tissue is removed from anesthetized rats and rinsed twice in incubation medium (2.09 g sodium bicarbonate and 0.04 g EDTA, disodium salt, in 1 L Krebs buffer). Each rat (300-350 g) yields approximately 4 ml of adipose tissue. The adipose tissue (35 ml) is cut into small pieces with scissors and washed with incubation medium (50 ml). The mixture is poured into the barrel of a 50 ml syringe to which is attached a short piece of clamped tubing instead of a needle. The aqueous phase is allowed to drain. A second wash with incubation medium is passed through the syringe. The tissue is added to 50 ml of collagenase solution (collagenase(90 mg), bovine serum albumin (BSA) (500 mg), and 0.1 M calcium chloride solution (1 ml), in incubation medium (50 ml)) in a 1 L bottle. The mixture is shaken in an environmental at 37° C. for about 60 minutes under an atmosphere of 95% oxygen/5% carbon dioxide to effect digestion of the tissue. The dispersed cells are poured through 2 layers of cheese cloth into a 100 ml plastic beaker. The undigested clumps in the cloth are rinsed once with incubation medium (20 ml). The cells in the beaker are centrifuged in 2 plastic tubes for 30 seconds at room temperature at 300 rpm. The aqueous phase is aspirated from beneath the loosely packed layer of floating fat cells and discarded. The adipocytes are gently poured into a 250 ml plastic beaker containing 100 ml of rinse solution (1 g BSA per 100 ml incubation medium). After gentle stirring the centrifugation step is repeated. Another wash with rinse solution follows. The cells are pooled and their volume is estimated with a graduated cylinder. The adipocytes are diluted in twice their volume of assay buffer (incubation medium (120 ml), BSA (1.2 g), pyruvic acid (13 mg)).
The assay is performed in 20 ml plastic scintillation vials and the total assay volume is 4.2 ml. Assay buffer (2.5 ml), diluted adipocytes (1.5 ml), and a solution of the compound to be tested (12.3 μL) adenosine agonist (12.3 μl; varying concentration) is incubated in the environmental shaker for 15 minutes, then the reaction is started with norepinephrine solution (41.2 μL) (10 nM, in a carrier solution containing water (100 ml), BSA (4 mg), and 0.1 M EDTA (20 I. LL))and adenosine deaminase (1 μg/ml, 41.2 μl). After sixty minutes in the shaker the reaction is terminated by putting the vials on ice. […] The hard lipid layer is removed by aspiration and the aqueous layer is assayed for glycerol (400 μl of sample). The positive control is done in the absence of any adenosine agonist, substituting water in place of the solution to be tested.

[2] = dose lowering heart rate by 25%, read-out: Blood Press/Heart Rate Anesthetized Rat HR/ED25
[3] = dose lowering mean arterial pressure by 25%, read-out: Blood Press/Heart Rate Anesthetized Rat MAP/ED25
[4] = 50% reduction in tension, 3 μM PGF2α, read-out: Vasorelaxation in Swine Coronary Artery/IC50
[5] = read-out: Vasorelaxation in Swine Coronary Artery/IC50 (μM), 50% reduction in tension, 3 μM PGF2α
[6] = 0.1 μM, versus positive control

Structure (SMILES): OC[C@H]1O[C@@H](n2cnc3c(N[C@@H]4CC=CC[C@H]4c4ccsc4)ncnc32)[C@H](O)[C@@H]1O (relative stereo) [Example 8, N^6-[trans-2-(thiophen-3-yl)-cyclohex-4-en-1-yl]adenosine]
- ED25 [1, 2]: 0.023 mg/kg
- ED25 [1, 3]: 0.01 mg/kg

- EC50 (swine coronary arteries; [4]): 0.64 µM
Structure (SMILES): CCNC(=O)[C@H]1C[C@@H](n2cnc3c(NCCc4nccs4)ncnc32)[C@H](O)[C@@H]1O (relative stereo) [Example 25, (±)-N^6-[2-(2"-thiazolyl)ethyl]-carbocyclic adenosine-5'-N-ethyl carboxamide]

Structure (SMILES): CCNC(=O)[C@H]1C[C@@H](n2cnc3c(NCCc4cccs4)ccnc32)[C@H](O)[C@@H]1O (relative stereo) [Example 30, (±)-N6-[1-(thiopheny-2-yl)ethan-2-yl]-N'-1-deazaaristeromycin-5'-N-ethyl carboxamide]
- ED25 [1, 2]: > 0.01 mg/kg
- ED25 [1, 3]: 0.006 mg/kg
- EC50 (swine coronary arteries; [5]): 12.1 µM

Structure (SMILES): CO[C@@H]1[C@H](O)[C@@H](CO)O[C@H]1n1cnc2c(N[C@@H]3CC=CC[C@H]3c3cccs3)ncnc21 (relative stereo) [Example 49, N^6-[trans-5-(2-thienyl)cyclohex-1-en-4-yl]-2'-O-methyladenosine]
- EC50 (rat adipocytes): 18.6 nM
- inhibition at 0.1 µM (rat adipocytes; [6]): 85%
- EC50 (swine coronary arteries; [5]): 9.81 µM

Structure (SMILES): CCNC(=O)[C@H]1O[C@@H](n2cnc3c(NC4CC=CCC4c4cccs4)ncnc32)[C@H](O)[C@@H]1O (single isomer, unassigned) [Example 5, N6-[trans-2-(thiophen-2-yl)cyclohex-4-en-l-yl]adenosine-5'-N-ethylcarboxamide]
- EC50 (swine coronary arteries; [5]): 0.068 µM

Structure (SMILES): CCNC(=O)[C@H]1O[C@@H](n2cnc3c(N)nc(NCCc4ccc(CCC(=O)O)cc4)nc32)[C@H](O)[C@@H]1O [CGS21680, reference compound]
- inhibition at 1 µM (rat adipocytes): 0%
- antilipolytic activity (rat adipocytes; in words): do not exhibit antilipolytic activity
- IC50 (swine coronary arteries): 80 nM

Structure (SMILES): OC[C@H]1O[C@@H](n2cnc3c(NC4CCCC4)ncnc32)[C@H](O)[C@@H]1O [CPA, N-cyclopentyladenosine, reference compound]
- inhibition at 0.1 µM (rat adipocytes): 97%
- inhibition at 1 µM (rat adipocytes): 100%
- EC50 (rat adipocytes): 0.31 nM
- IC50 (swine coronary arteries): 3180 nM

- EC50 (swine coronary arteries; [4]): 3.3 µM
Structure (SMILES): CCNC(=O)[C@H]1C[C@@H](n2cnc3c(N[C@H](C)Cc4ccc(Cl)s4)[n+]([O-])cnc32)[C@H](O)[C@@H]1O [Example 35, (2S)-2α,3α-dihydroxy-4β-[N6-[2-(5-chloro-2-thienyl)-(1R)-1-methylethyl]amino-9-adenyl]cyclopentane-1β-N-ethylcarboxamide-N^1-oxide]

- EC50 (swine coronary arteries; [4]): 0.45 µM
Structure (SMILES): CCNC(=O)[C@H]1C[C@@H](n2cnc3c(NC(CC)Cc4sccc4Cl)ccnc32)[C@H](O)[C@@H]1O (stereo partly drawn) [Example 37, [1S-[1α,2β,3β,4α]]-4-[7-[[2-(3-chloro-2-thienyl)-1-ethylethyl]amino]-3 H-imidazo[4,5-b]pyridin-3-yl]-N-ethyl-2,3-dihydroxycyclopentane-carboxamide]

- EC50 (swine coronary arteries; [4]): 0.47 µM
Structure (SMILES): CCNC(=O)[C@H]1C[C@@H](n2cnc3c(NC(Cc4cccs4)C(C)C)ccnc32)[C@H](O)[C@@H]1O (stereo partly drawn) [Example 38, [1S-[1α,2β,3β,4α]]-4-[7-[[2-(2-thienyl)-1-isopropylethyl]amino]-3 H-imidazo[4,5-b]pyridin-3-yl]-N-ethyl-2,3-dihydroxycyclopentanecarboxamide]

- EC50 (swine coronary arteries; [4]): 0.283 µM
Structure (SMILES): CCNC(=O)[C@H]1C[C@@H](n2cnc3c(N[C@H](C)Cc4cccs4)ccnc32)[C@H](O)[C@@H]1O [Example 40, [1S-[1α,2β,3β,4α(S*)]]-4-[7-[[2-(2-thienyl)-1-methylethyl]amino]-3 H-imidazo[4,5-b]pyridin-3-yl]-N-ethyl-2,3-dihydroxycyclopentane-carboxamide]

Structure (SMILES): CCNC(=O)[C@H]1C[C@@H](n2cnc3c(N[C@H](CC)Cc4ccc(Cl)s4)ccnc32)[C@H](O)[C@@H]1O [Example 41, [1S-[1α,2β,3β,4α]]-4-[7-[[2-(5-chloro-2-thienyl)-1-ethylethyl]amino]-3 H-imidazo[4,5-b]pyridin-3-yl]-N-ethyl-2,3-dihydroxycyclopentane-carboxamide]
- inhibition at 0.1 µM (rat adipocytes; [6]): 88%

Structure (SMILES): CCNC(=O)[C@H]1C[C@@H](n2cnc3c(N[C@H](C)Cc4ccc(Cl)s4)ncnc32)[C@H](OC(=O)OC)[C@@H]1OC(=O)OC [Example 42, (2S)-2α,3α-bis-methoxycarbonyloxy-4β-[N6-[2-(5-chloro-2-thienyl)-(1R)-1-methylethyl]amino-9-adenyl]cyclopentane-1β-N-ethylcarboxamide]
- EC50 (swine coronary arteries; [5]): 2.44 µM

Structure (SMILES): CCNC(=O)[C@H]1C[C@@H](n2cnc3c(N[C@H](C)Cc4ccc(Cl)s4)ncnc32)[C@@H]2OC(OCC)O[C@@H]21 (stereo partly drawn) [Example 43, (2S)-2α,3α-dihydroxy-4β-[N6-[2-(5-chloro-2-thienyl)-(1R)-1-methylethyl]amino-9-adenyl]cyclopentane-1β-N-ethylcarboxamide ethoxymethylene acetal]
- EC50 (swine coronary arteries; [5]): 7.83 µM

- EC50 (swine coronary arteries; [4]): 4.1 µM
Structure (SMILES): CCNC(=O)[C@H]1C[C@@H](n2cnc3c(N[C@H](C)Cc4ccc(Cl)s4)ncnc32)[C@H](OC(=O)NC)[C@@H]1OC(=O)NC [Example 45, (2S)-2α,3α-bis-methylcarbamoyloxy-4β-[N6-[2-(5-chloro-2-thienyl)-(1R)-1-methylethyl]amino-9-adenyl]cyclopentane-1β-N-ethylcarboxamide]

Structure (SMILES): CCNC(=O)[C@H]1C[C@@H](n2cnc3c(N[C@H](C)Cc4ccc(Cl)s4)ncnc32)[C@@H]2OC(=S)O[C@@H]21 [Example 46, (2S)-2α,3α-dihydroxy-4β-[N6-[2-(5-chloro-2-thienyl)-(1R)-1-methylethyl]amino-9-adenyl]cyclopentane-1β-N-ethylcarboxamide-2,3-thiocarbonate]
- EC50 (rat adipocytes; unit nM in cell): 4 nM
- EC50 (swine coronary arteries; [5]): 3.52 µM

- EC50 (rat adipocytes; unit nM in cell): 0.63 nM
- EC50 (swine coronary arteries; [4]): 5.7 µM
Structure (SMILES): CO[C@@H]1[C@H](O)[C@@H](CO)O[C@H]1n1cnc2c(N[C@H](C)Cc3sccc3Cl)ncnc21 [Example 47, N^6-[2-(3-chloro-2-thienyl)-(1R)-1-methylethyl]-2'-O-methyladenosine]
- inhibition at 0.1 µM (rat adipocytes; [6]): 94%

Structure (SMILES): CO[C@@H]1[C@H](O)[C@@H](CO)O[C@H]1n1cnc2c(N[C@H](C)Cc3ccc(Cl)s3)ncnc21 [Example 48, N^6-[2-(5-chloro-2-thienyl)-(1R)-1-methylethyl]-2'-O-methyladenosine]
- EC50 (rat adipocytes): 1.86 nM
- inhibition at 0.1 µM (rat adipocytes; [6]): 88%

Structure (SMILES): CCNC(=O)[C@H]1O[C@@H](n2cnc3c(N)ncnc32)[C@H](O)[C@@H]1O [NECA, N-ethylcarboxamidoadenosine, reference compound]
- EC50 (rat adipocytes): 2.5 nM

Structure (SMILES): C[C@H](Cc1ccccc1)Nc1ncnc2c1ncn2[C@@H]1O[C@H](CO)[C@@H](O)[C@H]1O [R-PIA, R-phenylisopropyladenosine, reference compound]
- EC50 (rat adipocytes): 1 nM
- IC50 (swine coronary arteries): 760 nM
